Test results from patent US7728158B2, “PPAR activity regulators” (Ajinomoto Co., Inc., priority 2006, dated 2010).

How the values were obtained:
[1] = target: T1, PPAR-α (Homo sapiens, UniProt Q07869); test: PPAR-α reporter assay (GAL4 luciferase, CV-1 cells); type: cell-based; conditions: induction ratio of luciferase activity at 50 μM, activity without tested compound = 1, hGR-GAL4-hPPAR-α
T1 construct: expressed in transfected cells; host or cells: CV-1 (African green monkey kidney)
T1 sequence (Q07869 167-468): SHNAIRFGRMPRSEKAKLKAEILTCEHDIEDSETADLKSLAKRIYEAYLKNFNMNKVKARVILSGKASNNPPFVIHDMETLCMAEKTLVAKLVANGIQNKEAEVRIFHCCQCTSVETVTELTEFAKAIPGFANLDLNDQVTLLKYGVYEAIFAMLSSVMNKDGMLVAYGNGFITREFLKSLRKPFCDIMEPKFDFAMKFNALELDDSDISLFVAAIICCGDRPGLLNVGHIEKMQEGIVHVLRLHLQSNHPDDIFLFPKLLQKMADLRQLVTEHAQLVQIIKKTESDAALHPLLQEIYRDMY
Method: The reporter assay of PPAR (peroxisome proliferator-activated receptor)-α was conducted by using the following plasmids in accordance with the known report (Steven A. Kliwer et al., The Journal of Biological Chemistry Vol. 270, No. 22: 12953-12956, 1995).
As luciferase expressing plasmid, used was the plasmid which introduces the sequence wherein 5 yeast GAL4 binding sequences, UAS (upstream activating sequence), are tandemly connected to the upstream of the thymidine kinase promoter of pTAL-Luc (#6252-1, produced by Clontech) (UAS×5-TK-Luc) (1).
(§1) As PPAR-α receptor expressing plasmid, used was the plasmid which introduces the N-terminal domain of human GR (1-76aa), the yeast GAL4 DNA binding domain (1-147aa) and PPAR-α ligand binding domain (167-468aa) to NotI site and SalI site of pExchange-1 core vector (#211176, produced by Stratagene) (hGR-GAL4-hPPAR-α) (2). The plasmid mixed solution used in the reporter assay of PPAR-α contains above (1), (2) and plasmid pcDNA3.1(−) as a carrier in the weight ratio of 4:1:3.
The medium having the following composition was used for seeding cell line CV-1 used in the reporter assay, derived from the kidney of an African green monkey, on the plate; and for diluting the tested compounds. Used was Dulbecco modified Eagle medium (D2902 without phenol red, produced by SIGMA) to which 3.7 g/L of NaHCO3, 3.5 g/L of D-glucose and 10% v/v fetal bovine serum were added.
(§2) CV-1 cells were seeded on the 384-well white plate (781080, produced by Greiner) to become 1.5×10^4 cells/30 μL per one well. Then, gene transfer was conducted in accordance with the manual by using OPTI-MEM I (11058-021, produced by GIBCO), FuGENE6 (1-815-075, produced by Roche) and the above PPAR-α plasmid mixed solution. The incubation was conducted in a carbon-dioxide incubator at 37° C. for 6 to 8 hours. Then, a diluted tested compound was added thereto and incubated in a carbon-dioxide incubator at 37° C. for 16 to 18 hours. Britelite (6016979, produced by PerkinElmer) was further added thereto and stirred, and the luciferase activity was measured with EnVision (produced by PerkinElmer).
(§3) Specifying the luciferase activity without addition of a tested compound as 1, the induction ratio of the luciferase activity by each tested compound was calculated.

[2] = target: T2, PPAR-γ (Homo sapiens, UniProt P37231); test: PPAR-γ reporter assay (GAL4 luciferase, CV-1 cells); type: cell-based; conditions: induction ratio of luciferase activity at 25 μM, activity without tested compound = 1, hGR-GAL4-hPPAR-γ
T2 construct: expressed in transfected cells; host or cells: CV-1 (African green monkey kidney)
T2 sequence (P37231 204-505): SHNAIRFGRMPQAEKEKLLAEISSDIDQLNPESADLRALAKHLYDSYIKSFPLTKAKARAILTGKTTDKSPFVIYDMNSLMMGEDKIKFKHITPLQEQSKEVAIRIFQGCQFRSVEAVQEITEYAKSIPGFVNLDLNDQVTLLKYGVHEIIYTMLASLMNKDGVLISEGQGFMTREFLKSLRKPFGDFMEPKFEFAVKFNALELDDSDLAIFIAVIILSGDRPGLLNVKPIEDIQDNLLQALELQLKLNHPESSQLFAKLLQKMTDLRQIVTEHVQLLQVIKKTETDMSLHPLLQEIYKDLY
Method: The reporter assay of PPAR-γ was conducted by using the following plasmids in accordance with the known report (Steven A. Kliwer et al., The Journal of Biological Chemistry Vol. 270, No. 22: 12953-12956, 1995).
As luciferase expressing plasmid, used was the plasmid which introduces the sequence wherein 5 yeast GAL4 binding sequences, UAS, are tandemly connected to the upstream of the thymidine kinase promoter of pTAL-Luc (#6252-1, produced by Clontech) (UAS×5-TK-Luc) (1).
as §1, with “As PPAR-γ” for “As PPAR-α”, “and PPAR-γ2” for “and PPAR-α”, “domain (204-505aa)” for “domain (167-468aa)”, “Stratagene) (hGR-GAL4-hPPAR-γ)” for “Stratagene) (hGR-GAL4-hPPAR-α)”, “of PPAR-γ” for “of PPAR-α”
as §2, with “PPAR-γ” for “PPAR-α”
as §3

Compound	PPAR-α induction ratio [1]	PPAR-γ induction ratio [2]
CCCCCCCCCCCC(=O)NC(C)(CC)C(=O)O (racemic) [Example 16]	23.0	18.5
CCCCCCCCCCCC(=O)NC(C)(C(=O)O)C(C)C (racemic) [Example 18]	39.0	24.0
CCCCCCCCCCCC(=O)NC(C(N)=O)C(C)C (racemic) [Example 21]	45.0	19.2
CCCCCCCCCCCCNC(=O)C(NC(=O)CCCCCCCCCCC)C(C)C (racemic) [Example 22]	44.0	16.6
CCCCCCCCCCCC(=O)N[C@H](C(=O)NC1CCCCC1)C(C)C (racemic) [Example 23, N-lauroyl-L-valine cyclohexylamide]	63.0	21.3
CCCCCCCCCCCC(=O)NC(C(=O)O)C(C(F)(F)F)C(F)(F)F (racemic) [Example 34]	2.3	2.7
CCCCCCCCCCCC(=O)NC(Cc1ccccc1C)C(=O)O (racemic) [Example 38]	2.8	3.2
CCCCCCCCCCCC(=O)NC(C)(Cc1ccccc1)C(=O)O (racemic) [Example 41]	7.3	5.1
CCCCCCCC(=O)N[C@H](C(=O)O)C(C)C [Example 1]	1.5	11.9
CCCCCCCCC(=O)N[C@H](C(=O)O)[C@@H](C)CC [Example 2]	2.1	12.5
C=CCCCCCCCCC(=O)N[C@@H](Cc1ccccc1)C(=O)O [Example 8]	1.3	4.4
C=CCCCCCCCCC(=O)N[C@H](C(=O)O)C(C)C [Example 10]	23.0	15.3
CCCCCCCCCCC(=O)N[C@@H](Cc1ccccc1)C(=O)O [Example 12]	1.4	4.2
CCCCCCCCCCCC(=O)N[C@H](C(=O)O)[C@@H](C)CC [Example 14]	51.0	20.5
CCCCCCCCCCCC(=O)NC(C)(C)C(=O)O [Example 17]	32.0	20.3
CCCCCCCCCCCC(=O)N[C@@H](CCSC)C(=O)O [Example 19]	24.0	20.9
CCCCCCCCCCCC(=O)N(CC)[C@H](C(=O)O)C(C)C [Example 24]	46.0	16.4
CCCCCCCCCCCCCC(=O)N[C@H](C(=O)O)[C@@H](C)CC [Example 25]	50.0	27.4
CCCCCCCCCCCCCCCC(=O)N[C@H](C(=O)O)C(C)C [Example 28]	29.0	17.1
CCCCCCCCCCCCCCCCCC(=O)N[C@H](C(=O)O)C(C)C [Example 30]	15.0	13.7
CCCCCCCCCCCCCCCCCCCCCC(=O)N[C@H](C(=O)O)C(C)C [Example 31]	1.2	4.4
CCCCCCCCCC(=O)N[C@H](C(=O)O)C(C)(C)C [Example 32]	31.5	15.2
CCCCCCCCCCCC(=O)N[C@H](C(=O)O)C(C)(C)C [Example 33]	81.0	30.2
CCCCCCCCCCCC(=O)N[C@H](C(=O)O)[C@H](C)CC [Example 35]	54.7	21.1
CCCCCCCCCCCC(=O)N[C@H](C(=O)O)c1ccccc1 [Example 36]	12.5	8.7
CCCCCCCCCCCC(=O)N[C@@H](Cc1ccc(OC)cc1)C(=O)O [Example 37]	24.5	19.5
CCCCCCCCCCCC(=O)N[C@H](C(=O)O)C1CCCCC1 [Example 39]	2.3	11.2
CCCCCCCCCCCC(=O)N[C@H](C(=O)O)C(c1ccccc1)c1ccccc1 [Example 40]	2.0	1.5

Results, then the compound that gave them:

PPAR-α induction ratio [1]	PPAR-γ induction ratio [2]	Compound
25.0	15.4	CCCCCCCCCCCC(=O)NC(C)C(=O)O (racemic) [Example 13]
0.9	6.1	CCCCCCCCC(=O)N[C@@H](CC(C)C)C(=O)O [Example 3]
3.1	12.9	CCCCCCCCC(=O)N[C@H](C(=O)O)C(C)C [Example 4]
3.5	15.9	CCCCCCCCCC(=O)N[C@H](C(=O)O)[C@@H](C)CC [Example 5]
1.3	9.5	CCCCCCCCCC(=O)N[C@@H](CC(C)C)C(=O)O [Example 6]
2.7	11.5	C=CCCCCCCCCC(=O)N[C@@H](CC(C)C)C(=O)O [Example 7]
19.0	25.4	CCCCCCCCCC(=O)N[C@H](C(=O)O)C(C)C [Example 9]
3.0	11.6	CCCCCCCCCCC(=O)N[C@@H](CC(C)C)C(=O)O [Example 11]
11.0	9.7	CCCCCCCCCCCC(=O)N[C@@H](CC(C)C)C(=O)O [Example 15]
52.0	19.1	CCCCCCCCCCCC(=O)N[C@H](C(=O)O)C(C)C [Example 20, N-lauroyl-L-valine]
33.0	21.0	CCCCCCCCCCCCCC(=O)N[C@@H](CC(C)C)C(=O)O [Example 26]
2.5	11.7	CCCCCCCCCCCCCCCC(=O)N[C@@H](CC(C)C)C(=O)O [Example 27]
1.6	12.3	CCCCCCCCCCCCCCCCCC(=O)N[C@@H](CC(C)C)C(=O)O [Example 29]
